No end group written: not given here.
Experiments:
[1] = system: GpA TMD (functional ToxR chimera); assay: Dominant-negative (heterotypic) ToxR assay, GpA as dominant phenotype; type: cell-based; conditions: Miller units normalized to poly-Leu* = 1 and corrected for expression, lower = stronger interaction, N in table
Text: (§1) Next, we investigated heterotypic interactions of the TLRs. We specifically studied TLR2, TLR1, and TLR6 because they are cell surface expressed receptors known to form functional heterodimers. To determine the ability of these three cell surface TLRs to have heterotypic interactions within its family, we studied the ability of the TLR1, TLR2, and TLR6 TMDs to interact with the TLR receptors also expressed at the cell surface; namely, TLR1, TLR2, TLR4, TLR5, TLR6, and TLR10. We monitored these interactions using a dominant-negative ToxR assay (Fig. S1B) which works by having a second TMD expressed with a non-functional ToxR* intracellular domain. This ToxR* domain is incapable of binding the ctx promoter making any interactions with this second expressed TMD unable to produce the reporter enzyme. As such, any interaction between the functional ToxR and non-functional ToxR* TMDs will result in a reduction in signal output.
(§2) Figure 3 Cell- Surface Toll-like Recptor Heterotypic Interactions. (A) A dominant-negative ToxR assay was used to study heterotypic interactions of the cell-surface TLRs. Two TLR TMDs were encoded in the FHK12 E.coli reporter strain, one with a functional ToxR domain (dominant phenotype) and one with a nonfunctional ToxR* domain (negative phenotype). Interaction between the two different TMDs leads to a reduction in signal from that seen for homotypic interactions. The TMDs for GpA, TLR1, TLR2, and TLR6 were used with the functional ToxR domain while TMDs for poly-Leucine, TMD5, integrin αIIb, TLR1, TLR2, TLR4, TLR5, TLR6, and TLR10 were used with the nonfunctional ToxR* domain. Interactions were most prominent for the TLRs known to have heterotypic interactions – TLR2-TLR1 and TLR2-TLR6. […] We also saw interaction with the same TMD further validating the homotypic interactions. […] Each dominant phenotype was done in 3 technical replicates with each negative phenotype and >6 measurements made for each replicate. Error bars depict the standard error of the mean (n- Tables S3, S5, S7, S9). Western blots staining for MBP were performed to monitor expression levels of the constructs with the upper band being functional ToxR chimeras and the lower band being nonfunctional ToxR* chimeras – (B) GpA, (C) TLR1, (D) TLR2, and (E) TLR6. Significant differences for the same dominant phenotype were determined by use of the Tukey-Kramer test.
(§3) For heterotypic interactions one plasmid containing a functional ToxR domain (200 ng) and a second plasmid containing a non-functional ToxR* domain (200 ng) were co-transformed into chemically competent FHK12 E. coli (400 µL) by incubating on ice for 30 min, heat shock at 42°C for 90 s, incubation on ice for 2 min, and addition of SOC media (1600 µL) followed by incubation with shaking for 1 h at 37°C. This transformation mixture (50 µL) was then used to spread LB-agar plates containing cholaramphenicol (30 µg/mL), kanamycin (33 µg/mL), and ampicillin (100 µg/mL) and grown overnight at 37°C. Single colonies were selected from the plates and grown in 5 mL LB media containing cholaramphenicol (30 µg/mL), kanamycin (33 µg/mL), ampicillin (100 µg/mL), and arabinose (0.0025%) overnight (16–20 h) with shaking at 37°C. Analysis of activity was monitored as described in homotypic ToxR assays. Western blotting was done in the same manner as the homotypic ToxR assay with one band appearing for the functional ToxR construct and a second band for the nonfunctional ToxR* construct. Data were normalized to poly-Leu* Miller Units and corrected for varying protein expression levels using ImageJ (NIH) as previously reported.

[2] = system: TLR2 TMD (functional ToxR chimera); assay: Dominant-negative (heterotypic) ToxR assay, TLR2 as dominant phenotype; type: cell-based; conditions: Miller units normalized to poly-Leu* = 1 and corrected for expression, lower = stronger interaction, N in table
Text: as §1, §2, §3

[3] = system: homotypic interaction of the same TMD peptide; assay: Fluorescence self-quenching assay in C14-betaine micelles; type: binding, human; conditions: from molar fraction Kd compared with known ranges of TMD interactions
Text: An apparent dissociation constant (Kd) can be determined from self-quenching interactions by varying the amount of detergent present for a fixed peptide concentration. At low detergent:peptide ratios, the TMD peptides are driven to interact; however, gradually increasing the amount of detergent present at a fixed peptide concentration will cause the TMD interactions to dissociate. Then, at some critical detergent:peptide ratio, the interaction is completely dissociated and the fluorescence plateaus. […] Fitting the data results in apparent dissociation constants, Kd, in terms of a dimensionless detergent:peptide ratio (molar fraction) as this ratio, instead of the bulk concentration, is more relevant to TMD peptide association. For TLR1 the Kd was determined to be 645.63±49.08, for TLR6 the Kd was determined to be 883.57±86.92 and for TLR2 the Kd was determined to be 4475.5±637.9. […]
Figure 5 TLR1, TLR2, and TLR6 Homotypic Interactions by Fluorescence Self-Quenching. […] Homotypic interaction affinity was studied by changes of fluorescence intensity at different molar ratios of detergent to peptide. […] Increasing detergent competes off the TMD-TMD interactions and leads to an increase in fluorescence signal. […] Kd were determined using the Hill Equation.
Fluorescence self-quenching was used to directly probe the homotypic interactions of the synthetic peptides. […] Peptide concentrations of these samples were determined by UV-VIS and adjusted with the corresponding C14-Betaine only buffers such that all peptide concentrations were 1 µM. […] Samples were allowed to equilibrate in the 96-well plate at room temperature for 2 h before measurement using a Beckman-Coulter DTX 880 Multimode Detector plate reader. […] Each data point is blank corrected for the corresponding C14-Betaine only signal and are the average of 3 different readings. To scale the data from 0 to 1, the initial data point was averaged and set to be zero by subtracting from all further readings, and the data points that are in the plateau region were averaged and then all values were divided by this average to get a maximum of 1. […]

Row | Substance | Mean GpA-TMD* heterotypic interaction (ToxR signal) [1] | Mean TLR2-TMD* heterotypic interaction (ToxR signal) [2] | Classification of homotypic interaction strength [3]
1 | TLR6*: TLR6 TMD chimera with nonfunctional ToxR* domain (negative phenotype) (GNRASITLLIVTIGATMLVLAVTVTSLCIYLGSLIN; also: fused to non-functional ToxR* (S87H) and maltose binding protein, ends not given here) | 1.0451 | 0.2588 | weak
2 | TLR2*: TLR2 TMD chimera with nonfunctional ToxR* domain (negative phenotype) (GNRASALVSGMCCALFLLILLTGVLCGSLIN; cysteine pairing not given here; also: fused to non-functional ToxR* (S87H) and maltose binding protein, ends not given here) | 0.7284 | 0.1930 | moderately strong
3 | TLR1*: TLR1 TMD chimera with nonfunctional ToxR* domain (negative phenotype) (GNRASITLLIVTIVATMLVLAVTVTSLCSYLGSLIN; also: fused to non-functional ToxR* (S87H) and maltose binding protein, ends not given here) | 0.8934 | 0.2198 | weak

From publication PMC3498381, “Isolated Toll-like Receptor Transmembrane Domains Are Capable of Oligomerization” (PLoS ONE, 2012)
